# Article PMC8699718, “A structurally conserved site in AUP1 binds the E2 enzyme UBE2G2 and is essential for ER-associated degradation” (PLoS Biology, 2021)
# Legend:
# Assay type in all cases: cell-based, human
# AUP1:UBE2G2 = assay: co-IP of AUP1 with transfected MYC-UBE2G2, +/- oleic acid; conditions: WT HT1080, oleic acid loading, three experiments, reviewer response
# Text: (§1) page 10: Major points: The phenotypes they show are strong but it would be nice to see the initial observations repeated in other cell lines. […] We have now generated HEK293 AUP1 KO cell lines and have recapitulated our initial results on domain requirements for both NHK and RI332 (Fig 1G-H, Fig 2C-D). We also provide data that E2 loss similarly occurs in these HEK293 AUP1 KO cells and that E2 stability can be restored by GFP-G2BR (Fig S5D and S5E). To extend our observations beyond HT1080 and HEK293, we also generated and examined M17 AUP1 KO cells, and observed a similar destabilization of UBE2G2 with loss of AUP1. […] Although, it is possible that the stability of UBE2G2 is due to the level of AUP1 in these cells, it is not clear whether the G2BR of AUP1 is always available for UBE2G2 binding and whether AUP1 acts as a sink for UBE2G2 when associated with lipid droplets. […] They can then compare the 'pulldown levels' of AUP1 and gp78 to the amounts of protein in the reference binding domains in (Figure 6). […] Alternatively, NHK degradation may be reduced under increasing Oleic acid levels but UBE2G2 binding is not affected. […] We have now loaded cells with oleic acid and assessed E2 levels and NHK degradation (Fig S5A and Fig S5B). […]
# gp78:UBE2G2 = assay: co-IP of gp78 with transfected MYC-UBE2G2, +/- oleic acid; conditions: WT HT1080, oleic acid loading, three experiments, reviewer response
# Text: as §1
# UBE2G2 = UBE2G2 levels in HT1080 cells loaded with oleic acid; conditions: HT1080, 200 μM oleic acid
# Procedure: Plasmid transfections were carried out using PolyFect (Qiagen, Germantown, MD, USA) or JetPrime (Polyplus, New York, NY, USA) reagents. For CHX chase experiments, approximately 24 hours following plasmid transfection, cells were treated with 50 μg/mL CHX in complete media for the indicated times. For lipid droplet experiments, cells were treated with 200 μM oleic acid (Millipore Sigma) for 16 hours, beginning 24 hours following transfection. For assessment of GFP^u stability, cells were cultured in DMEM supplemented with 10% FetalPlex animal serum complex (Gemini Bio, West Sacramento, CA, USA) and treated with 50 μM emetine for the indicated times to inhibit protein synthesis. […] Clarified lysates or immunoprecipitates were denatured by heating in NuPAGE LDS Sample Buffer with β-mercaptoethanol at 70°C for 10 minutes, resolved on Bis-Tris polyacrylamide gels in NuPAGE MES or MOPS SDS running buffer and analyzed by western blotting. Proteins were detected using Clarity Western ECL (Bio-Rad, Hercules, CA, USA), Radiance Q (Azure Biosystems, Dublin, CA, USA), or SuperSignal Femto West (Thermo Scientific, Waltham, MA, USA) ECL reagents and a c280 Imager (Azure Biosystems) or autoradiography. […]
smiles,measurement,setting,value
CCCCCCCC/C=C\CCCCCCCC(=O)O [oleic acid],decrease of AUP1 co-association with MYC-UBE2G2,AUP1:UBE2G2,~ 27%
same,decrease of gp78 co-association with MYC-UBE2G2,gp78:UBE2G2,~ 20%
same,effect on UBE2G2 levels,UBE2G2,affected neither UBE2G2 levels
